Read-outs that look alike come from different tables or passages of the source.
What was measured:
[1] = in vitro; type: cell-based, human; conditions: human
Method: (§1) Cytotoxicity of the analyzed compounds was determined by the Neutral Red dye uptake assay. A total of 1.35 × 10^5 HFFs per well were seeded in 96-well plates 1 d prior to analysis, cultivated overnight until cells were confluent and then incubated with compounds for 7 days. The assay was performed as described previously using 40 μg/mL Neutral Red (Sigma Aldrich). The quantity of dye incorporation was determined using the Victor X4 microplate reader (PerkinElmer, Waltham, MA, USA) by fluorescence measurement at 560/630 nm for excitation/emission, respectively. To assess antiviral activity of compounds, HFFs seeded in 96-well plates (1.35 × 10^5 HFFs per well) were infected with HCMV AD169-GFP or TB40-IE2-YFP to reach 25–50% infected cells at 7 days post-infection (d p.i.). After incubation with the infectious inoculum for 1.5 h at 37 °C, compounds were added in serial dilutions. At 7 d p.i., cells were fixed for 10 min at room temperature using 10% formalin. Finally, cells were washed once with PBS followed by automated fluorescence quantitation.

[2] = test system: HCMV AD169-GFP; experiment: microbe, parasite or virus in culture; type: cell-based, human cytomegalovirus (HCMV); conditions: for SI: selectivity index CC50/EC50, AD169-GFP
Method: as §1
Seeking for a novel group of potential antiviral agents, small molecules with covalent protein-binding activity were investigated. These small molecules, originally developed as kinase inhibitors, carry a so-called warhead moiety as an important functional group, such as the prototype afatinib (Figure 1A, red circle). In this study, a series of newly generated warhead compounds (most of which are the property of B.K./Lead Discovery Center, Dortmund, Germany) were used for an evaluation of putative antiviral and core NEC-inhibitory properties. In a first step, the antiviral activity of warheads was analyzed against HCMV TB40-IE2-YFP (Figure 1B) and AD169-GFP (Figure 1C). To this end, HFFs were infected with either of the two viral strains before the GFP or YFP reporter signals were measured at 7 d p.i. (in parallel, putative compound cytotoxicity was determined by Neutral Red assay). The HCMVs AD169-GFP and TB40-IE2-YFP, based on BAC-derived recombinants of the laboratory strains AD169 and TB40, respectively, were both propagated on HFFs, and the produced stocks were then used as two reporter viruses for the assessement of antiviral drug activity. While strain AD169 is mainly restricted in its tropism to fibroblasts, TB40 tropism can be extended to fibroblasts and epithelial and endothelial cells. Here, the use of two strains was intended to illustrate the assumption that antiviral activity of these warhead compounds may be directed to conserved viral target proteins, thus pointing out a minor impact of strains.
(A) Chemical structure of a clinically approved prototype of covalently binding warhead inhibitors, […], afatinib/Gilotrif®. The red circle identifies a functionally active α-, β-unsaturated carbonyl group. (B) At 7 d p.i., compounds were analyzed for their cytotoxicity (orange) and antiviral activity (blue) during HCMV infection, using TB40-IE2-YFP as a reporter virus. Cell viability was assessed through Neutral Red staining of uninfected cells. Measurements were performed in quadruplicate (YFP fluorometry) or triplicate (Neutral Red assay), and standard deviations of mean values are given; EC50, CC50 and SI values are indicated accordingly. (C) In a parallel series of analyses, HCMV AD169-GFP was used as another reporter virus representing a second viral strain. […] HCMV AD169-GFP-infected HFFs were treated with 0.1 µM to 50 µM of the compounds (in parallel Neutral Red assay, 0.1 µM to 100 µM), before the signal assessments were performed at 7 d p.i.

[3] = test system: HFFs; experiment: in vitro; type: cell-based, human
Method: as §1

[4] = test system: HCMV pUL53 nuclear rim localization; experiment: Confocal imaging of pUL53 localization in HCMV AD169-infected HFFs; type: cell-based
Method: HFF or HFF-UL50 cells, either Dox-induced or uninduced, were seeded in 6-well plates with a density of 2 × 10^5 cells per well, grown on coverslips and infected with HCMV AD169 or AD169 ∆UL50-ΣUL53. For infection experiments with the recombinant virus, different Shield-1 and Dox conditions were analyzed. Antivirals were added post-infection as described for the experiments. For transfection experiments, HeLa cells were seeded on coverslips in 6-well plates with a density of 3.25 × 10^5 cells per well for cotransfection with the indicated NEC expression plasmids (HSV-1 HA-UL34 + Flag-UL31, HCMV pUL50-HA + pUL53-Flag and EBV HA-BFRF1 + Flag-BFLF2). At indicated time points after virus infection, or 3 days post-transfection, cells were fixed, applied for IF staining as described previously and analyzed using a TCS SP5 confocal laser-scanning microscope with Leica LAS AF software (Leica Microsystems, Wetzlar, Germany). […] The device features a Leica photomultiplier tube (PMT) and a hybrid detector (HyD). Images were further processed using Photoshop CS5 (Adobe Inc., San José, CA, USA). Primary and secondary antibodies used for staining were mAb-UL53.01 (kindly provided by S. Jonjic and T. Lenac Rovis, Rijeka, Croatia), mAb-lamin A/C (ab108595, Abcam, Cambridge, UK), mAb-HA (Clone 7, H9658, Sigma-Aldrich, St. Louis, MO, USA), pAb-Flag (F7425, Sigma-Aldrich, St. Louis, MO, USA), anti-mouse Alexa 555 (A21422, Thermo Fisher Scientific, Waltham, MA, USA) and anti-rabbit Alexa 488 (A11034, Thermo Fisher Scientific, Waltham, MA, USA). Microscopic counting was performed for quantitation of colocalization patterns of two different proteins, as achieved by counting 50 cells per biological triplicate.

[5] = test system: HCMV TB40-IE2-YFP; experiment: microbe, parasite or virus in culture; type: cell-based, human cytomegalovirus (HCMV)
Method: Cytotoxicity of the analyzed compounds was determined by the Neutral Red dye uptake assay. A total of 1.35 × 10^5 HFFs per well were seeded in 96-well plates 1 d prior to analysis, cultivated overnight until cells were confluent and then incubated with compounds for 7 days. The assay was performed as described previously using 40 μg/mL Neutral Red (Sigma Aldrich). The quantity of dye incorporation was determined using the Victor X4 microplate reader (PerkinElmer, Waltham, MA, USA) by fluorescence measurement at 560/630 nm for excitation/emission, respectively. […] Finally, cells were washed once with PBS followed by automated fluorescence quantitation.
Seeking for a novel group of potential antiviral agents, small molecules with covalent protein-binding activity were investigated. […] In a first step, the antiviral activity of warheads was analyzed against HCMV TB40-IE2-YFP (Figure 1B) and AD169-GFP (Figure 1C). To this end, HFFs were infected with either of the two viral strains before the GFP or YFP reporter signals were measured at 7 d p.i. (in parallel, putative compound cytotoxicity was determined by Neutral Red assay). […]
(A) Chemical structure of a clinically approved prototype of covalently binding warhead inhibitors, LDC580, afatinib/Gilotrif®. […] Cell viability was assessed through Neutral Red staining of uninfected cells. […]

[6] = AD169-GFP-infected HFFs, 7 d p.i., 0.1 µM to 50 µM
[7] = Human betaherpesvirus 5, AD169, 168 h, clinically relevant warheads, 0.1 µM to 50 µM, AD169-GFP-infected HFFs, 7 d p.i.
[8] = HFFs infected with HCMV AD169 (MOI 0.1), 5 d p.i.

SMILES	antiviral activity (in words) [2, 6]	SI ([2]; clinically relevant warheads)	CC50 at 7 days ([1]; CC50) [µM]	EC50 [2, 7] [µM]	pUL53 localization (in words) [4, 8]	further results
COC[C@H]1OC(=O)c2coc3c2[C@@]1(C)C1=C(C3=O)[C@@H]2CCC(=O)[C@@]2(C)C[C@H]1OC(C)=O [wortmannin]	no notable antiviral activity	inactive				CC50 at 7 days [1]: > 100 µM; EC50 ([2]; Human betaherpesvirus 5, AD169, 168 h): > 50 µM
C=CC(=O)N1CCN(c2nc(=O)n(-c3c(C)ccnc3C(C)C)c3nc(-c4c(O)cccc4F)c(F)cc23)[C@@H](C)C1 [sotorasib]	no notable antiviral activity	inactive	95 ± 12	> 50		
CCOc1cc(/C=c2\sc3n(c2=O)C(c2ccccc2OC)C(C(C)=O)=C(C)N=3)ccc1O (centres unmarked) [LDC492]						CC50 [3]: > 10 µM; cells with partial or predominant dot-like localization of pUL53 within the nucleoplasm ([4]; HCMV AD169 MOI 0.1, 5 d p.i., concentrations of partial-grade antiviral activity, 50 cells counted per biological triplicate): more than 50%; EC50 ([5]; HFFs infected with HCMV TB40-IE2-YFP, 7 d p.i., YFP fluorometry, read-out: EC50): > 10 µM; EC50 ([2]; HFFs infected with HCMV AD169-GFP, 7 d p.i., investigational LDC warheads, read-out: EC50): 8.9 ± 6.6 µM
CN(C)C/C=C/C(=O)Nc1cc2c(Nc3ccc(F)c(Cl)c3)ncnc2cc1O[C@H]1CCOC1 [LDC580, afatinib]			> 10		no comparable effect	CC50 ([3]; human, 7 days): ~9 µM; EC50 ([5]; Human betaherpesvirus 5, 168 h): 0.8 µM; EC50 ([2]; Human betaherpesvirus 5, AD169, 168 h, HFFs infected with HCMV AD169-GFP, 7 d p.i., investigational LDC warheads): 0.6 µM
CCN(CC)C(=O)/C(C#N)=C/c1cc(O)c(O)c([N+](=O)[O-])c1 [entacapone]	no notable antiviral activity	inactive	93 ± 4	> 50		
CC(C)Nc1nc2cc(Cl)c(Cl)cc2n1[C@H]1O[C@@H](CO)[C@H](O)[C@@H]1O [MBV, maribavir]					predominant dot-like structures	intranucleoplasmic coaggregation of lamin A/C (in words) ([4]; HFFs infected with HCMV AD169 (MOI 0.1), 5 d p.i., called preliminary): also visible

From publication PMC10137179, “Assessment of Covalently Binding Warhead Compounds in the Validation of the Cytomegalovirus Nuclear Egress Complex as an Antiviral Target” (Cells, 2023)
